Measured values: patent publication US11458225B2, “3D vascularized human ocular tissue for cell therapy and drug discovery” (THE UNITED STATES OF AMERICA, as represented by the …, priority 2016, dated 2022)
Entries after “also recorded” stand apart in the source; their conditions may differ.

Columns and labels:
[1] = test system: RPE-“choroid” tissues; test: Hypoxia disease model: DMOG treatment of bioprinted RPE-"choroid" tissue, confocal imaging; assay type: cell-based, human; conditions: two weeks of treatment
Description: FIGS. 18A-18I are digital images showing the effect of hypoxia on “choriocapillaris.” RPE-“choroid” tissues were treated with DMOG (100 μM) after 4 weeks from printing. DMOG inhibits prolyl-4-hydroxylase and induces hypoxia-inducible factor. DMOG was treated on only apical region of RPE or on both apical region of RPE and “choroid” sides. After two weeks of DMOG treatment, tissues were fixed in 4% PFA. Z-stack confocal images were separated into three sections as RPE (A-C), subRPE/scaffold (D-F), and “choroid” (G-I). RPE was recognized by Hoescht (nuclei). Choroid was stained with CD31. Scale bar=100 μm.
It was tested if hypoxic condition of RPE or RPE-“choroid” plays a role in “choroidal” neovascularization. Hypoxia has been reported as a crucial factor to induce wet AMD. A chemical compound, DMOG, was used to induce hypoxia-inducible factor in RPE or every cell type within the tissue.

[2] = test system: 3D vascularized tissue containing GFP positive primary endothelial cells, pericytes, and fibroblasts; conditions: a week of VEGF treatment (85 ng/ml) vs 3 days then basal 1.7 ng/ml
Description: (A) 8 bit images of printed GFP endothelial cells (white) were quantified. Five line probes were placed in each gap between stripes of the printed geometry. Each line probe detects peaks (hollow circles) of GFP intensity above a threshold. Line 1 and 6, 2 and 5, 3 and 4 indicate edge, intermediate, and center of each gap, respectively. (B) Two experimental groups are compared. […] Angiogenesis was quantified as a number of GFP peaks in each line probe. The quantification of angiogenesis was performed between groups and time frames of G (n=5; number of printings). Error bars indicates standard error and mean. Two-way ANOVA and Bonferroni post-hoc pair comparison. † indicates statistical significance (p<0.05) between groups (left figure) and day 5-6 and day 7-8 (right figure). # and * indicates statistical significance (p<0.05) in day 3-4 vs. day 5-6 and day 3-4 vs. day 7-8, respectively.

Compound	vascularization in sub-RPE region (CD31 stain) ([1]; DMOG 100 μM from 4 weeks after printing, on apical region of RPE only or on both RPE and “choroid” sides)	changes of the RPE monolayer ([1]; DMOG 100 μM, RPE recognized by Hoescht)	growth and viability of microvascular network [2]
COC(=O)CNC(=O)C(=O)OC [DMOG]	significantly induced vascularization in sub-RPE region; also recorded: induced vascularization in the subRPE region	did not show noticeable changes	–
VEGF	–	–	significantly enhanced growth and viability of microvascular network
